Experimental data published in the supplement of paper PMC12076712.

What was measured:
Experiment in all cases: pIC50, kinobeads binding competition
UniProt Q13043 = target: T1, UniProt Q13043
T1 sequence (whole entry): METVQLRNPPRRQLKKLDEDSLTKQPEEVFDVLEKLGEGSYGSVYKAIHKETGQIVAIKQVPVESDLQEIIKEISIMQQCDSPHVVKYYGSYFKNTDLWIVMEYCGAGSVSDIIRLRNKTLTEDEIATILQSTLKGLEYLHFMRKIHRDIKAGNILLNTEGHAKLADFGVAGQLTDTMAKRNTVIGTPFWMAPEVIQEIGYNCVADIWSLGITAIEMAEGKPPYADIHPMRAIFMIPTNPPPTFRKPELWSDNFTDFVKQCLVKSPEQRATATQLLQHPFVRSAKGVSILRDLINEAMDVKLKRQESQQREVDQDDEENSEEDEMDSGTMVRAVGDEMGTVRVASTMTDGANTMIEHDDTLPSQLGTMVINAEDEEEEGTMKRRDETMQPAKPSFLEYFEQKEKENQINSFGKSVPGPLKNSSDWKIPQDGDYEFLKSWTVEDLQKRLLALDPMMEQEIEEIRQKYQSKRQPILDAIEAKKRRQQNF
In short: (§1)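 Jurkat cells were exposed alive to nine compound concentrations (top 30 μM, 1:4 steps) or vehicle for 60 min at 37 °C and then lysed. In a second format, nine concentrations (top 30 μM, 1:5 steps) were incubated for 60 min at 4 °C with Jurkat lysate or with a 1:1:1:1 lysate mix of HEK293, K-562, HepG2 and placenta. Proteins captured on Kinobeads were digested and quantified by TMT10 LC-MS/MS. pIC50 values were derived from logistic dose-response fits (R drc package) of fold changes relative to vehicle, in biological duplicates.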

UniProt O00444 = target: T2, UniProt O00444
T2 sequence (whole entry): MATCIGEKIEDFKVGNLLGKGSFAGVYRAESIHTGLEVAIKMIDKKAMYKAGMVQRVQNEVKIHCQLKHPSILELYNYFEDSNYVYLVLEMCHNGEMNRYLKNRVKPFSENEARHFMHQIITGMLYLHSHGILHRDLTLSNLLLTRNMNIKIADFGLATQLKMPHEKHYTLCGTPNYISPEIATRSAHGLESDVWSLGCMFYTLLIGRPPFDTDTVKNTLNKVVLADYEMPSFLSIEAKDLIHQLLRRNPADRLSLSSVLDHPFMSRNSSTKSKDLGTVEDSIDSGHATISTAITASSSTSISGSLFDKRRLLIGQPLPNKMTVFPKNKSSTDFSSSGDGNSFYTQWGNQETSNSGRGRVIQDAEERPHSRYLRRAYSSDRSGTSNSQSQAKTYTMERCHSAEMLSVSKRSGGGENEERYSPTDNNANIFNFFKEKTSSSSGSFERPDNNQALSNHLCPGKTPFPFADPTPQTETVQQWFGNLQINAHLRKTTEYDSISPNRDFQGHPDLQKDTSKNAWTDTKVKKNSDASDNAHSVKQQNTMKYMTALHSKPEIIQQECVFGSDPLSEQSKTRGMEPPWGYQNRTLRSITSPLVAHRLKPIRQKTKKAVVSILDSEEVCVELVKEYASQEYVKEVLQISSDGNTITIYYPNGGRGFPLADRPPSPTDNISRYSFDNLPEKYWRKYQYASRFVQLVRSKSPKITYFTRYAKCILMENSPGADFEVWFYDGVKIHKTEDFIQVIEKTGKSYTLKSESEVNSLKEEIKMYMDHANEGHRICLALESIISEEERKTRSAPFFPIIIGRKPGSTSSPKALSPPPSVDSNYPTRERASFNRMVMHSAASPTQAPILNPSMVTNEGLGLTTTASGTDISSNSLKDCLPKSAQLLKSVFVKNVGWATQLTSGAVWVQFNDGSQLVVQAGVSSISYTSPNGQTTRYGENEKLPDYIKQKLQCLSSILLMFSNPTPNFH
In short: as §1

NEK9 = target: T3, NEK9 (UniProt Q8TD19)
T3 sequence (whole entry): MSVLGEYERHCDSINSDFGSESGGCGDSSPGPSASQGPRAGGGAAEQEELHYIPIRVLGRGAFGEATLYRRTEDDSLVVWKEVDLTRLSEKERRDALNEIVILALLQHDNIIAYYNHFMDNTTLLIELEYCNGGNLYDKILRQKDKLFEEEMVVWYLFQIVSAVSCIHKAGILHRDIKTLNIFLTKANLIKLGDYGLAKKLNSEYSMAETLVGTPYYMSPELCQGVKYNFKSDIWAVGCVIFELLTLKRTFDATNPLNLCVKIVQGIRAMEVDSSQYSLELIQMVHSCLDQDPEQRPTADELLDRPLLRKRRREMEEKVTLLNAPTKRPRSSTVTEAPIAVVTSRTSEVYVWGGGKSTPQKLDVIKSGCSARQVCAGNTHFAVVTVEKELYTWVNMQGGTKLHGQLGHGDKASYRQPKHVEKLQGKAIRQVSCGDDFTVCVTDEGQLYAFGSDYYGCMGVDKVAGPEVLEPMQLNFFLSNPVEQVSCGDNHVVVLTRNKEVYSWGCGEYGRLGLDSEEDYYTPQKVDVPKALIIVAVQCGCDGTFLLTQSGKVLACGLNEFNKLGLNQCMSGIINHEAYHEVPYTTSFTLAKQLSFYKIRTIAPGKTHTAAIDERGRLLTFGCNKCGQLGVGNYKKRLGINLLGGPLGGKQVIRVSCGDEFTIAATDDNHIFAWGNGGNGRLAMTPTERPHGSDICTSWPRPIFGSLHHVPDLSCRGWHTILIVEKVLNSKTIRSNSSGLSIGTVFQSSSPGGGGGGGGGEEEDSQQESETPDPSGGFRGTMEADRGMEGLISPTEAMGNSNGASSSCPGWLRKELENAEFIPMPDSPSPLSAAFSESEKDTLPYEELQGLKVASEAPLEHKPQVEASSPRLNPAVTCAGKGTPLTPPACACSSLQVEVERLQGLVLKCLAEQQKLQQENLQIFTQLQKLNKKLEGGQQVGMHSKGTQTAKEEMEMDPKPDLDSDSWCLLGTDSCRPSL
In short: as §1

UniProt P78527 = target: UniProt P78527
In short: as §1

CDK2 = CDK2 (UniProt P24941)
In short: as §1

Jak2 = Jak2 (UniProt O60674)
In short: as §1

UniProt Q05655 = target: UniProt Q05655
In short: as §1

ABL2 = ABL2 (UniProt P42684)
In short: as §1

CSK = CSK (UniProt P41240)
In short: as §1

Chain of CSK (P41240 whole entry, looked up): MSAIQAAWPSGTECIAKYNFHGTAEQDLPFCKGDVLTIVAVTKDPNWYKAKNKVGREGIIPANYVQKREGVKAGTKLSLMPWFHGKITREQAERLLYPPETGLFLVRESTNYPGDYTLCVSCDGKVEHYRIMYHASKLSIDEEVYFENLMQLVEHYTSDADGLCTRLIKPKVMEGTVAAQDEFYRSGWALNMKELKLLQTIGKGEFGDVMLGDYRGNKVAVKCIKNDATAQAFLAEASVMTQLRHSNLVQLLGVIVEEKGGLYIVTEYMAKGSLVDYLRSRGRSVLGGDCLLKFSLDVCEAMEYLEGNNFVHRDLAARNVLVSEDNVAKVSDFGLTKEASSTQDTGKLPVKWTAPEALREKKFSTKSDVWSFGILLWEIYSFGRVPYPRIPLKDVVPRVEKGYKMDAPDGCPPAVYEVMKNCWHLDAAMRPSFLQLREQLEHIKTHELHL
Chain of UniProt P78527 (P78527 whole entry): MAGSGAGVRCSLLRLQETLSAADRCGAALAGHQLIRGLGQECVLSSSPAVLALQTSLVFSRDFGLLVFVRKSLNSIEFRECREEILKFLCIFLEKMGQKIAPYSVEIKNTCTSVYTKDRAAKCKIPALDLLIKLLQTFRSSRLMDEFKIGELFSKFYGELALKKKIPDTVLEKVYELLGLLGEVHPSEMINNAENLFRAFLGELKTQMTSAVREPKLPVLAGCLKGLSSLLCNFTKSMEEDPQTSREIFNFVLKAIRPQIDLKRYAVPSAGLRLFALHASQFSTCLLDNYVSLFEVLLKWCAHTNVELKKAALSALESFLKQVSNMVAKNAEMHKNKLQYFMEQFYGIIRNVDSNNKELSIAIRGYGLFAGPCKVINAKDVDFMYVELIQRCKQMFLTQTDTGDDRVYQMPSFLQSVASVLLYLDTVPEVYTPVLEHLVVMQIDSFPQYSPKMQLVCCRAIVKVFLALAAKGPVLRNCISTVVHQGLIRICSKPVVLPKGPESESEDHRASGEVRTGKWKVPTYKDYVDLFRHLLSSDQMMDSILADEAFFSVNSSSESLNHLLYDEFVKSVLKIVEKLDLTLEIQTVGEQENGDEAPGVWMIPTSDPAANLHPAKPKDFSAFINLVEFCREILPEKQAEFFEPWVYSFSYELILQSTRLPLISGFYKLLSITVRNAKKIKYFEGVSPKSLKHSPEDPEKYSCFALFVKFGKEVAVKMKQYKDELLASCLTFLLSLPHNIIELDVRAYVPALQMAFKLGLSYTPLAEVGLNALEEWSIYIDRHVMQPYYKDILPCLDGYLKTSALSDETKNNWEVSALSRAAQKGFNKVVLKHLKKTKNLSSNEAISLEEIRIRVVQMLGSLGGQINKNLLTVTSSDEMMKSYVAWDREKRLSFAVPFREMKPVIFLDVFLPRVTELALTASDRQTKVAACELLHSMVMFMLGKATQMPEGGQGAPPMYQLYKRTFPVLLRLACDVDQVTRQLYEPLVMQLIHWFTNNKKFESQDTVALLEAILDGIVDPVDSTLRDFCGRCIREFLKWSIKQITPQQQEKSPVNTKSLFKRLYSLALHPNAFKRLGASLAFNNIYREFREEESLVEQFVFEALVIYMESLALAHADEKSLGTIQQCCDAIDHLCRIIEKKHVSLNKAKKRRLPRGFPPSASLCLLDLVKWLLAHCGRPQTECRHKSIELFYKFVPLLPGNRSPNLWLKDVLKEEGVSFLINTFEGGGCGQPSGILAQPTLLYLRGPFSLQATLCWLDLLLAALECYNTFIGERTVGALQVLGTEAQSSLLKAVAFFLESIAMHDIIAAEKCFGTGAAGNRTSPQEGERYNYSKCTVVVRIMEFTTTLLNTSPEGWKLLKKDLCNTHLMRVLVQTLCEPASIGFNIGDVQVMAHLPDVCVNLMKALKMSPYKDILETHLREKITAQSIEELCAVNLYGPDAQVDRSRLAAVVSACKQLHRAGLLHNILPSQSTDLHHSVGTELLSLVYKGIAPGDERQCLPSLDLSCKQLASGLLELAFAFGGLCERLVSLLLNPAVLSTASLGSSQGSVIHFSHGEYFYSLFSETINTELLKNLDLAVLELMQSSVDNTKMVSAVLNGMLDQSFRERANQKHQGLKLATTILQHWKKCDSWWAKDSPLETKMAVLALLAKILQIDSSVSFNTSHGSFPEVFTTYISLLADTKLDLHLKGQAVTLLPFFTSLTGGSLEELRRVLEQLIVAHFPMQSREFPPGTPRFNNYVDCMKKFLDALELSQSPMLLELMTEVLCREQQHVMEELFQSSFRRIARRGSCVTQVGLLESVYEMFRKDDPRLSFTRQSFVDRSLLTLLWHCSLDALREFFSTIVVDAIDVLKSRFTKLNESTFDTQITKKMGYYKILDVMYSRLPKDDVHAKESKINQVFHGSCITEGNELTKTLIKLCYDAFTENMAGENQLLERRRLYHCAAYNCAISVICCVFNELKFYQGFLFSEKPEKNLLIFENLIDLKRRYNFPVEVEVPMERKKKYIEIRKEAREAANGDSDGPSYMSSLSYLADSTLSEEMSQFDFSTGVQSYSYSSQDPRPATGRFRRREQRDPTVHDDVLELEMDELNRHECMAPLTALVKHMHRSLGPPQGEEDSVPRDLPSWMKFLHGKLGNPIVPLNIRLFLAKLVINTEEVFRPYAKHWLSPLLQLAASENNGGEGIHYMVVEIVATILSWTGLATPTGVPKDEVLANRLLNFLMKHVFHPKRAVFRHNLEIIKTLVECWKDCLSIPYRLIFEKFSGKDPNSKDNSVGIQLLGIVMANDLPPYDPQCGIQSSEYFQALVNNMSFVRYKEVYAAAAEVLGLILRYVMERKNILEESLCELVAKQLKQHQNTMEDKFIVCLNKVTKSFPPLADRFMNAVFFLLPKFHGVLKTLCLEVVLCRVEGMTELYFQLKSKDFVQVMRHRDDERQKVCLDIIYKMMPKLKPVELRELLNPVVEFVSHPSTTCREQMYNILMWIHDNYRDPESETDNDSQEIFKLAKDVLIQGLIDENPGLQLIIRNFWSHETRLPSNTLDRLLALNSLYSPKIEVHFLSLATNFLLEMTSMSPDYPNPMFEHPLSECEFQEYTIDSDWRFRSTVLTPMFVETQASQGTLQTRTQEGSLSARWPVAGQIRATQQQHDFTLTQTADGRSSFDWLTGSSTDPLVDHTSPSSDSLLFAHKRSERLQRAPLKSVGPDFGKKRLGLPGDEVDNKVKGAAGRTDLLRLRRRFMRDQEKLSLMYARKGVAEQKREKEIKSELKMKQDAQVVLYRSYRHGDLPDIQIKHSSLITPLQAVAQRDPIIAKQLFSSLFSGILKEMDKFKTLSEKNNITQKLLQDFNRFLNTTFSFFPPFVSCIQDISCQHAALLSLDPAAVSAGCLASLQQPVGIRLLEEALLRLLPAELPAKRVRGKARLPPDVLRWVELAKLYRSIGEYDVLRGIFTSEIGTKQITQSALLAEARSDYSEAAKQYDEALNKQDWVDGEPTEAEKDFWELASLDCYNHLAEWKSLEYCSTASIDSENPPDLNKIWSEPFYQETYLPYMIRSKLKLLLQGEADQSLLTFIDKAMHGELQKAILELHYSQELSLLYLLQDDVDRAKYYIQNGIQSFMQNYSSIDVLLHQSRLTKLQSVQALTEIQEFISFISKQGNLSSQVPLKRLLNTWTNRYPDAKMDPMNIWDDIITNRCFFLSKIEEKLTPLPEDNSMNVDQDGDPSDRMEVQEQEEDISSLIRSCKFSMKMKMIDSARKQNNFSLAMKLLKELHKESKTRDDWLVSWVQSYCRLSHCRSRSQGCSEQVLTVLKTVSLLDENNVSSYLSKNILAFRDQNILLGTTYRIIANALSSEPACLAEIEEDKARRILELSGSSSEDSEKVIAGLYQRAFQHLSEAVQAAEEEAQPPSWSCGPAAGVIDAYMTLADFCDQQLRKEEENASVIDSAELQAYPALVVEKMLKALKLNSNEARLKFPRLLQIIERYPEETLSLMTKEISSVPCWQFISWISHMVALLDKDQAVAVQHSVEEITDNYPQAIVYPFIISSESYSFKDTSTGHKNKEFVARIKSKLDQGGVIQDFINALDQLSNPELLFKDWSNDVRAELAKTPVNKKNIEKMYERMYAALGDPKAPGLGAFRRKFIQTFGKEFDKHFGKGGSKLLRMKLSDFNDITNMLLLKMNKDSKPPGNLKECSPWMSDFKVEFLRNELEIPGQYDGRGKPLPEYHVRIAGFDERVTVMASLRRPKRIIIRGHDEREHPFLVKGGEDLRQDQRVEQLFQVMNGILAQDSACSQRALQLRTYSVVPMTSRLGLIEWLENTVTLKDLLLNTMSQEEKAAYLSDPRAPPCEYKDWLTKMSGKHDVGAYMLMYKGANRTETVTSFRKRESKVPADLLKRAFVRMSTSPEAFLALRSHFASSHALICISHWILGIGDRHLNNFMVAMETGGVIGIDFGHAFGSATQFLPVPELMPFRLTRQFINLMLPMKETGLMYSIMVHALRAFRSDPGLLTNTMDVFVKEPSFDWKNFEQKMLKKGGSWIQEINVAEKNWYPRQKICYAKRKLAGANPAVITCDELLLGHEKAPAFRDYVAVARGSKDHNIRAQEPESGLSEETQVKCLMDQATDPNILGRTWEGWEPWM

| SMILES | pIC50 (UniProt Q13043; cell material: Jurkat cells) | pIC50 (UniProt Q13043; cell material: Jurkat lysate) | pIC50 (UniProt Q13043; cell material: Lysate mix) | pIC50 (UniProt O00444; cell material: Jurkat cells) | pIC50 (UniProt O00444; cell material: Jurkat lysate) | pIC50 (UniProt O00444; cell material: Lysate mix) | pIC50 (NEK9; cell material: Jurkat cells) | pIC50 (NEK9; cell material: Jurkat lysate) | pIC50 (NEK9; cell material: Lysate mix) | pIC50 (UniProt P78527; cell material: Jurkat cells) | pIC50 (UniProt P78527; cell material: Jurkat lysate) | pIC50 (UniProt P78527; cell material: Lysate mix) | pIC50 (CDK2; cell material: Jurkat cells) | pIC50 (CDK2; cell material: Jurkat lysate) | pIC50 (CDK2; cell material: Lysate mix) | pIC50 (Jak2; cell material: Jurkat lysate) | pIC50 (Jak2; cell material: Lysate mix) | pIC50 (UniProt Q05655; cell material: Jurkat cells) | pIC50 (UniProt Q05655; cell material: Jurkat lysate) | pIC50 (UniProt Q05655; cell material: Lysate mix) | pIC50 (ABL2; cell material: Jurkat cells) | pIC50 (ABL2; cell material: Jurkat lysate) | pIC50 (ABL2; cell material: Lysate mix) | pIC50 (CSK; cell material: Jurkat cells) | pIC50 (CSK; cell material: Jurkat lysate) | pIC50 (CSK; cell material: Lysate mix) |
| --- | --- | --- | --- | --- | --- | --- | --- | --- | --- | --- | --- | --- | --- | --- | --- | --- | --- | --- | --- | --- | --- | --- | --- | --- | --- | --- |
| O=C(NCCNC(=O)c1cc(Nc2cc(C3CC3)[nH]n2)nc(N2CCN(Cc3ccc(S(=O)(=O)F)cc3)CC2)n1)OC1CC/C=C/CCC1 (stereo not drawn) | 5.98 | 4.72 | 4.99 | 5.5 | < 4.52 | < 4.52 | 6.9 | 5.24 | 5.56 | < 4.52 | < 4.52 | < 4.52 | 6.45 | 5.06 | 5.19 | < 4.52 | < 4.52 | 5.19 | < 4.52 | < 4.52 | 5 | < 4.52 | < 4.52 | < 4.52 | < 4.52 | < 4.52 |
| Cc1cc(Nc2cc(C(=O)NCCNC(=O)OC3CC/C=C/CCC3)nc(N3CCN(Cc4ccc(S(=O)(=O)F)cc4)CC3)n2)n[nH]1 (stereo not drawn) | – | – | 4.74 | – | – | < 4.52 | – | – | 5.2 | – | – | < 4.52 | – | – | 4.74 | – | < 4.52 | – | – | < 4.52 | – | – | < 4.52 | – | – | < 4.52 |
| CCNC(=O)c1cc(Nc2cc(C3CC3)[nH]n2)nc(N2CCN(Cc3ccc(S(=O)(=O)F)cc3)CC2)n1 | – | – | 6.06 | – | – | 5.81 | – | – | 7.29 | – | – | < 4.52 | – | – | 6.29 | – | 4.73 | – | – | < 4.52 | – | – | 5.35 | – | – | < 4.52 |
| CCNC(=O)c1cc(Nc2cc(C)[nH]n2)nc(N2CCN(Cc3ccc(S(=O)(=O)F)cc3)CC2)n1 | – | – | 5.8 | – | – | 5.97 | – | – | 7.27 | – | – | < 4.52 | – | – | 6.47 | – | 4.98 | – | – | < 4.52 | – | – | 4.81 | – | – | < 4.52 |
| C#CCNC(=O)c1cc(Nc2cc(C3CC3)[nH]n2)nc(N2CCN(Cc3ccc(S(=O)(=O)F)cc3)CC2)n1 | 6.35 | 5.89 | 6.8 | 5.96 | 5.44 | 6.02 | 6.87 | 6.66 | 7.48 | < 4.52 | < 4.52 | < 4.52 | 6.8 | 6.16 | 6.7 | < 4.52 | 4.9 | 5.53 | < 4.52 | < 4.52 | 5.87 | 4.65 | 5.39 | 5.55 | < 4.52 | < 4.52 |
| C#CCNC(=O)c1cc(Nc2cc(C)[nH]n2)nc(N2CCN(Cc3ccc(S(=O)(=O)F)cc3)CC2)n1 | – | – | 5.98 | – | – | 5.39 | – | – | 6.52 | – | – | < 4.52 | – | – | 6.2 | – | 4.93 | – | – | < 4.52 | – | – | 4.64 | – | – | < 4.52 |
